Biological target: T1, Apelin receptor (Homo sapiens, UniProt P35414)
T1 sequence (P35414 whole entry): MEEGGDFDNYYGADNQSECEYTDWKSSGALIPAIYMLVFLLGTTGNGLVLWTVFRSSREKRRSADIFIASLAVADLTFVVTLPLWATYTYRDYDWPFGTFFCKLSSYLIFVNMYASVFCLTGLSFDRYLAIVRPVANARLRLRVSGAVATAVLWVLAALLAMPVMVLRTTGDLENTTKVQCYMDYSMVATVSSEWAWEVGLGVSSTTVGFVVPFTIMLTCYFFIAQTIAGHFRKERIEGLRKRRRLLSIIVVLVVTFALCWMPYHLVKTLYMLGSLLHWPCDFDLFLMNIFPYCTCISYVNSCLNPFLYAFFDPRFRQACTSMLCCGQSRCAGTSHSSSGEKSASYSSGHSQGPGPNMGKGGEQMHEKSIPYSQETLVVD
Experiment: apelin receptor antagonists, arrestin read-out – cell-based, luminescent, enzyme-fragment complementation, selectivity assay for CCR6 antagonist project, SAR follow-up (AID 588359)

Structure (SMILES)	IC50 [µM]
CN1C(=O)C(C2CC(c3ccc(Cl)cc3)N=N2)C(=O)N(C)C1=O (stereo not drawn) [SMR000439471]	7.22
OCC12C=CC(O1)c1c2c(O)n(-c2ccccc2-c2ccccc2)c1O (stereo not drawn) [7-(hydroxymethyl)-2-(2-phenylphenyl)-4,7a-dihydro-3aH-octahydro-1H-4,7-epoxyisoindole-1,3-dione]	> 66.6
CC(N=Nc1ccc2ccccc2n1)c1ccccc1O (stereo not drawn) [(6Z)-6-[1-[N'-(2-quinolyl)hydrazino]ethylidene]cyclohexa-2,4-dien-1-one]	4.12

Reference: BindingDB's records for doi:10.7270/Q2B856NC (Burnham Center For Chemical Genomics, 2011)
